Source: PubChem BioAssay AID328 (DTP/NCI, 2004)
Several values for one entry are separate records, joined by “and”; a condition that tells them apart may be missing. Equal entries are not always repeated. Inconclusive results and toxic doses are left out. How the source made its calls: active means survival T/C of 150% or more; inactive means T/C below 125% in these data.

Tested on: BDF1 mice, P388 leukemia ip, median survival T/C
Assay: NCI In Vivo Anticancer Drug Screen. Data for tumor model P388 Leukemia (intraperitoneal) in B6D2F1 (BDF1) mice
Conditions: endpoint: median survival time, higher = longer survival
Outline: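 In tumour-bearing mice, survival after compound treatment is set against the vehicle group and given as a quotient.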

[1] = dose: 50.0 mg/kg/injection, schedule: Q01DX009 (ip), vehicle: saline with Tween-80
[2] = dose: 100.0 mg/kg/injection, schedule: Q01DX009 (ip), vehicle: saline with Tween-80
[3] = dose: 200.0 mg/kg/injection, schedule: Q01DX009 (ip), vehicle: saline with Tween-80
[4] = dose: 12.5 mg/kg/injection, schedule: Q01DX009 (ip), vehicle: saline with Tween-80
[5] = dose: 50.0 mg/kg/injection, schedule: Q04DX003 (ip), vehicle: saline with Tween-80
[6] = dose: 100.0 mg/kg/injection, schedule: Q04DX003 (ip), vehicle: Klucel (hydroxypropylcellulose) (HPC)
[7] = dose: 200.0 mg/kg/injection, schedule: Q04DX003 (ip), vehicle: Klucel (hydroxypropylcellulose) (HPC)
[8] = dose: 400.0 mg/kg/injection, schedule: Q04DX003 (ip), vehicle: Klucel (hydroxypropylcellulose) (HPC)
[9] = dose: 100.0 mg/kg/injection, schedule: Q01DX009 (ip), vehicle: saline
[10] = dose: 200.0 mg/kg/injection, schedule: Q01DX009 (ip), vehicle: saline
[11] = dose: 12.5 mg/kg/injection, schedule: Q01DX009 (ip), vehicle: saline
[12] = dose: 100.0 mg/kg/injection, schedule: Q04DX003 (ip), vehicle: saline with Tween-80

Measured: T/C

S=C1NC2=S(N=C(Nc3ccccc3)N2c2ccccc2)S1 (stereo unspecified)
inactive: [1] 94 % of control | [2] 96 % of control | [3] 93 % of control

C[N+](C)(Cc1ccccc1)CC(O)COc1ccccc1 (stereo unspecified)
inactive: [4] 96 % of control | dose: 12.5 mg/kg/injection, schedule: Q04DX003 (ip), vehicle: saline with Tween-80 118 % of control | dose: 25.0 mg/kg/injection, schedule: Q01DX009 (ip), vehicle: saline with Tween-80 103 % of control | dose: 25.0 mg/kg/injection, schedule: Q04DX003 (ip), vehicle: saline with Tween-80 113 % of control | [5] 104 % of control

CCCCCCC(=O)/C=C/c1ccc(Cl)cc1
inactive: [2] 90 % of control | [3] 91 % of control | dose: 400.0 mg/kg/injection, schedule: Q01DX009 (ip), vehicle: saline with Tween-80 100 % of control

CCOC(=O)C1CCCN1C(=O)c1c2nc3c(C(=O)N4CCCC4C(=O)OCC)ccc(C)c3oc-2c(C)c(=O)c1N (stereo unspecified)
inactive: dose: 100.0 mg/kg/injection, schedule: Q04DX002 (ip), vehicle: saline with Tween-80 90 % of control | dose: 200.0 mg/kg/injection, schedule: Q04DX002 (ip), vehicle: saline with Tween-80 101 % of control | dose: 400.0 mg/kg/injection, schedule: Q04DX002 (ip), vehicle: saline with Tween-80 90 % of control

O=c1[nH]c2cc(F)ccc2o1
inactive: [6] 100 % of control | [7] 95 % of control | [8] 100 % of control

CCCSCCCC(=O)O
inactive: dose: 50.0 mg/kg/injection, schedule: Q04DX003 (ip), vehicle: Klucel (hydroxypropylcellulose) (HPC) 91 % of control | [7] 91 % of control

Cc1cc(C)c(-c2c(C)cc(C)c(C(=O)c3ccc([N+](=O)[O-])cc3)c2C)c(C)c1C(=O)c1ccc([N+](=O)[O-])cc1
inactive: dose: 3.0 mg/kg/injection, schedule: Q01DX009 (ip), vehicle: Klucel (hydroxypropylcellulose) (HPC) 100 % of control | dose: 6.0 mg/kg/injection, schedule: Q01DX009 (ip), vehicle: Klucel (hydroxypropylcellulose) (HPC) 100 % of control | dose: 12.0 mg/kg/injection, schedule: Q01DX009 (ip), vehicle: Klucel (hydroxypropylcellulose) (HPC) 95 % of control | dose: 50.0 mg/kg/injection, schedule: Q01DX009 (ip), vehicle: Klucel (hydroxypropylcellulose) (HPC) 92 % of control | [6] 95 % of control | [7] 100 % of control | [8] 100 % of control

CCCCCC(CN(C)C)C(=O)/C=C/c1c(Cl)cccc1Cl (stereo unspecified)
inactive: dose: 3.12 mg/kg/injection, schedule: Q04DX003 (ip), vehicle: Klucel (hydroxypropylcellulose) (HPC) 104 % of control | dose: 6.25 mg/kg/injection, schedule: Q01DX009 (ip), vehicle: Klucel (hydroxypropylcellulose) (HPC) 110 % of control | dose: 6.25 mg/kg/injection, schedule: Q04DX003 (ip), vehicle: Klucel (hydroxypropylcellulose) (HPC) 109 % of control | dose: 12.5 mg/kg/injection, schedule: Q04DX003 (ip), vehicle: Klucel (hydroxypropylcellulose) (HPC) 104 % of control | dose: 18.0 mg/kg/injection, schedule: Q04DX003 (ip), vehicle: Klucel (hydroxypropylcellulose) (HPC) 105 % of control | dose: 28.0 mg/kg/injection, schedule: Q04DX003 (ip), vehicle: Klucel (hydroxypropylcellulose) (HPC) 115 % of control | dose: 40.0 mg/kg/injection, schedule: Q01DX001 (ip), vehicle: saline 109 % of control | dose: 40.0 mg/kg/injection, schedule: Q04DX003 (ip), vehicle: Klucel (hydroxypropylcellulose) (HPC) 90 % of control | dose: 65.0 mg/kg/injection, schedule: Q01DX001 (ip), vehicle: saline 104 % of control

COC(=O)C1(C)CSCCC1=O (stereo unspecified)
inactive: [9] 105 % of control | dose: 100.0 mg/kg/injection, schedule: Q04DX003 (ip), vehicle: saline 100 % of control | [10] 105 % of control | dose: 200.0 mg/kg/injection, schedule: Q04DX003 (ip), vehicle: saline 100 % of control | dose: 400.0 mg/kg/injection, schedule: Q01DX009 (ip), vehicle: saline 95 % of control | dose: 400.0 mg/kg/injection, schedule: Q04DX003 (ip), vehicle: saline 95 % of control

Nc1n[nH]c(N)n1
inactive: [9] 113 % of control | [10] 113 % of control

Cc1ccc(NS(=O)(=O)c2ccc([N+](=O)[O-])cc2)cc1
inactive: [4] 90 % of control | dose: 33.0 mg/kg/injection, schedule: Q01DX009 (ip), vehicle: saline with Tween-80 100 % of control | [1] 90 % of control and 100 % of control | dose: 75.0 mg/kg/injection, schedule: Q01DX009 (ip), vehicle: saline with Tween-80 95 % of control | [2] 100 % of control

Clc1nc2ccccc2n2nnnc12
inactive: dose: 5.0 mg/kg/injection, schedule: Q01DX009 (ip), vehicle: saline with Tween-80 105 % of control | dose: 10.0 mg/kg/injection, schedule: Q01DX009 (ip), vehicle: saline with Tween-80 105 % of control | [11] 94 % of control | dose: 20.0 mg/kg/injection, schedule: Q01DX009 (ip), vehicle: saline with Tween-80 107 % of control | dose: 25.0 mg/kg/injection, schedule: Q01DX009 (ip), vehicle: saline 97 % of control

CC(Nc1ccccc1)(C(N)=O)c1ccccc1 (stereo unspecified)
inactive: dose: 25.0 mg/kg/injection, schedule: Q01DX001 (ip), vehicle: saline with Tween-80 90 % of control | dose: 50.0 mg/kg/injection, schedule: Q01DX001 (ip), vehicle: saline with Tween-80 104 % of control | dose: 100.0 mg/kg/injection, schedule: Q01DX001 (ip), vehicle: saline with Tween-80 95 % of control | dose: 200.0 mg/kg/injection, schedule: Q01DX001 (ip), vehicle: saline with Tween-80 90 % of control | dose: 400.0 mg/kg/injection, schedule: Q01DX001 (ip), vehicle: saline with Tween-80 95 % of control

CC[C@H](CC[C@@H](C)[C@H]1CC[C@H]2[C@@H]3CC=C4C[C@@H](OC(=O)CSC(CC(=O)O)C(=O)O)CC[C@]4(C)[C@H]3CC[C@]12C)C(C)C (stereo partly specified)
inactive: dose: 100.0 mg/kg/injection, schedule: Q01DX009 (ip), vehicle: Klucel (hydroxypropylcellulose) (HPC) 109 % of control | dose: 200.0 mg/kg/injection, schedule: Q01DX009 (ip), vehicle: Klucel (hydroxypropylcellulose) (HPC) 104 % of control

CN1CCN(CCCN2c3ccccc3Sc3ccc(C(F)(F)F)cc32)CC1
active: [12] 150 % of control and 163 % of control
inactive: dose: 6.25 mg/kg/injection, schedule: Q01DX009 (ip), vehicle: saline 109 % of control | dose: 9.37 mg/kg/injection, schedule: Q01DX009 (ip), vehicle: saline 118 % of control | dose: 9.37 mg/kg/injection, schedule: Q04DX003 (ip), vehicle: saline with Tween-80 117 % of control | [11] 109 % of control and 118 % of control | dose: 18.75 mg/kg/injection, schedule: Q04DX003 (ip), vehicle: saline with Tween-80 121 % of control | dose: 44.0 mg/kg/injection, schedule: Q01DX009 (ip), vehicle: saline with Tween-80 107 % of control | [5] 113 % of control | dose: 75.0 mg/kg/injection, schedule: Q04DX003 (ip), vehicle: saline 115 % of control

NC(=O)c1nccnc1Cl
inactive: [1] 110 % of control | [5] 101 % of control | [2] 98 % of control | [12] 102 % of control and 111 % of control | [3] 91 % of control | dose: 200.0 mg/kg/injection, schedule: Q04DX003 (ip), vehicle: saline with Tween-80 88 % of control and 104 % of control | dose: 400.0 mg/kg/injection, schedule: Q04DX003 (ip), vehicle: saline with Tween-80 92 % of control and 101 % of control
